These results are taken from patent US7229984B2, “Dibenzoxazepinone derivatives and uses thereof” (Roche Palo Alto LLC, priority 2004, dated 2007).

The target in data set [1] is T1, recombinant human 5-HT2A receptor (Homo sapiens, UniProt P28223).
T1 construct: expressed in transfected cells; membranes
Description: Radioligand binding, [3H]Ketanserin competition in CHO-K1 cell membranes. Conditions: [3H]Ketanserin displacement, pH 7.4, 32° C., approximate value, read-out: pKi for 5-HT2A (converted). The procedure:
(§1) The binding activity of compounds of this invention in vitro was determined as follows. Duplicate determinations of 5-HT6 ligand affinity were made by competing for binding of [^3H]LSD in cell membranes derived from HEK293 cells stably expressing recombinant human 5-HT6 receptor. Duplicate determinations of 5-HT2A ligand affinity were made by competing for binding of [^3H]Ketanserin (3-(2-(4-(4-fluorobenzoyl)piperidinol)ethyl)-2,4(1H,3H)-quinazolinedione) in cell membranes derived from CHO-K1 cells stably expressing recombinant human 5-HT2A receptor. Membranes were prepared from HEK 293 cell lines by the method described by Monsma et al., Molecular Pharmacology, Vol. 43 pp. 320–327 (1993), and from CHO-K1cell lines as described by Bonhaus et al., Br J Pharmacol. Jun; 115(4):622–8 (1995).
(§2) For estimation of affinity at the 5-HT6 receptor, all determinations were made in assay buffer containing 50 mM Tris-HCl, 10 mM MgSO4, 0.5 mM EDTA, 1 mM ascorbic acid, pH 7.4 at 37° C., in a 250 microliter reaction volume. […]
(§3) Assay tubes containing [^3H] […] Bound[^3H]LSD or [^3H]Ketanserin were determined as radioactive counts per minute using Packard TopCount.
(§4) Displacement of [^3H]LSD or [^3H]Ketanserin from the binding sites was quantified by fitting concentration-binding data to a 4-parameter logistic equation: […]

The target in data set [2] is T2, recombinant human 5-HT6 receptor (Homo sapiens, UniProt P50406).
T2 construct: expressed in transfected cells; membranes
The data set is described as follows: Radioligand binding, [3H]LSD competition in HEK293 cell membranes. Conditions: [3H]LSD displacement, pH 7.4, 37° C., approximate value, read-out: pKi for 5-HT6 (converted). The procedure: as §1, §2, §3, §4

Each structure is given as a SMILES string. Where a name gives a salt, the structure may show the parent alone.

T1 sequence (P28223 whole entry): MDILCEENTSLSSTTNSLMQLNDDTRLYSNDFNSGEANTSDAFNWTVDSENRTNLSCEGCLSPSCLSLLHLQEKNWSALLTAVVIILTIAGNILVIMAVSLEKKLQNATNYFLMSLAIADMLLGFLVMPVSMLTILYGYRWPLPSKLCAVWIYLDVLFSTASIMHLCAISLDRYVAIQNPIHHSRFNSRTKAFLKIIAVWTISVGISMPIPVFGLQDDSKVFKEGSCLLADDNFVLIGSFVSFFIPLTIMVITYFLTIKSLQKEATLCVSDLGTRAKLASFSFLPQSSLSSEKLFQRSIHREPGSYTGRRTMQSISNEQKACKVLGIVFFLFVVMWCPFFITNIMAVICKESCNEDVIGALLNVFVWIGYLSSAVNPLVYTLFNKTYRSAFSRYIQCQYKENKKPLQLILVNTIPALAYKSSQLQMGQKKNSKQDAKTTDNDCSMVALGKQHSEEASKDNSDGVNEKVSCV
T2 sequence (P50406 whole entry): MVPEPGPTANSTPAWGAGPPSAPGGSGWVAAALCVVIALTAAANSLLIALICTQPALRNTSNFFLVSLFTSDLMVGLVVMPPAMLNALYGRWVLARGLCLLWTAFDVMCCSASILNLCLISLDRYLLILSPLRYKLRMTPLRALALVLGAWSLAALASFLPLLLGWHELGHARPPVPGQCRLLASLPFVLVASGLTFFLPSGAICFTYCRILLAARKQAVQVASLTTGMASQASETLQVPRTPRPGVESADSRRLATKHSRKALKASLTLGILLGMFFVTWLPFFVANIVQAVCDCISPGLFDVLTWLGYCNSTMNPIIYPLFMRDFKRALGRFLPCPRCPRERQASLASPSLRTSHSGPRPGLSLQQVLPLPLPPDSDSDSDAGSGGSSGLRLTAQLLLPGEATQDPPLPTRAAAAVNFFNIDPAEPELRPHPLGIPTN

For orientation: melting point means the temperature, or range, at which the solid turns liquid. `O=C1c2cccc(N3CCNCC3)c2Oc2ccccc2N1Cc1ccccc1` (as salt: HCl) [Compound 1, 10-Benzyl-4-piperazin-1-yl-10H-dibenzo[b,f][1,4]oxazepin-11-one] yielded a melting point of 198 to 199 °C.

As for `O=C1c2cccc(N3CCNCC3)c2Nc2ccccc2N1Cc1ccccc1` (as salt: HCl) [Compound 13, 10-Benzyl-4-piperazin-1-yl-5,10-dihydro-dibenzo[b,e][1,4]diazepin-11-one], the melting point was 322 to 323 °C (dec.).

Turning to `O=C1c2cccc(N3CCNCC3)c2Sc2ccccc2N1Cc1ccccc1` (as salt: HCl) [Compound 20, 10-Benzyl-4-piperazin-1-yl-10H-dibenzo[b,f][1,4]thiazepin-11-one], the melting point lay within 301 to 302 °C.

With `O=C1c2cccc(N3CCNCC3)c2Oc2c(F)cccc2N1CCc1ccccc1` [Compound 26, 6-Fluoro-10-phenethyl-4-piperazin-1-yl-10H-dibenzo[b,f][1,4]oxazepin-11-one,hydrochloride], the Ki in data set [1] was approximately 1.32 nM.

In the case of `O=C1c2cccc(N3CCNCC3)c2Oc2ccc(F)cc2N1Cc1cccc(C(F)(F)F)c1` [Compound 28, 8-Fluoro-4-piperazin-1-yl-10-(3-trifluoromethyl-benzyl)-10H-dibenzo[b,f][1,4]oxazepin-11-one], the Ki in data set [2] is approximately 0.282 nM.

Take `O=C1c2cccc(N3CCNCC3)c2Oc2ccccc2N1Cc1c[nH]c2ccccc12` [Compound 37, 10-(1H-Indol-3-ylmethyl)-4-piperazin-1-yl-10H-dibenzo[b,f][1,4]oxazepin-11-one]: the melting point lay within 98 to 99 °C.
